Measured values taken from ChEMBL document CHEMBL5036370, “Indole-Containing Pyrazino[2,1-b]quinazoline-3,6-diones Active against Plasmodium and Trypanosomatids” (ACS Med Chem Lett, 2022).
The source made the active and inactive calls. No cut-off for these calls is given here.

Legend:
[1] = system: V79; experiment: (§1) Cytotoxicity against Chinese hamster V79 cells measured after 24 hrs by MTT assay; assay type: cell-based, Cricetulus griseus; conditions: v79, 24 h
[2] = system: Plasmodium falciparum; experiment: Antimalarial activity against CQ-sensitive Plasmodium falciparum 3D7 assessed as parasite growth inhibition incubated for 48 hrs by SYBR Green I dye based fluorescence assay; assay type: functional, organism-based; conditions: 3D7, 48 h
[3] = Selectivity index, ratio of CC50 for cytotoxicity against human THP-1 cells to IC50 for antitrypanosomal activity against bloodstream form of Trypanosoma brucei Lister 427; assay type: toxicity, cell-based; conditions: read-out: Ratio CC50/IC50
[4] = system: Leishmania infantum; experiment: Antileishmanial activity against axenic amastigote stage of Leishmania infantum infected in THP-1 cells assessed as reduction in parasite growth at 10 uM incubated for 72 hrs by luminescence analysis; assay type: functional, organism-based
[5] = Cytotoxicity against human THP-1 cells assessed as reduction in cell viability measured after 72 hrs by MTT assay; assay type: cell-based
[6] = system: Trypanosoma brucei; experiment: Antitrypanosomal activity against bloodstream form of Trypanosoma brucei Lister 427 assessed as parasite growth inhibition incubated for 72 hrs by resazurin staining based assay; assay type: functional, organism-based; conditions: Lister 427, 72 h
[7] = system: Trypanosoma brucei; experiment: Antitrypanosomal activity against bloodstream form of Trypanosoma brucei Lister 427 assessed as parasite growth inhibition at 10 uM incubated for 72 hrs by resazurin staining based assay; assay type: functional, organism-based
[8] = system: Hemozoin; experiment: Inhibition of Beta-hematin formation at 24 to 96 uM after 24 hrs by microplate reader assay; conditions: dose 24-96 µM
[9] = as §1; assay type: cell-based, Cricetulus griseus; conditions: V79 cells, read-out: LD50
[10] = Hemolytic activity against human erythrocytes at 0.04 to 10 uM incubated for 1 hr by microplate reader assay; assay type: ADME, tissue-based, Erythrocyte; conditions: dose 0.04-10 µM, read-out: Activity
[11] = Hemolytic activity against human erythrocytes at <=10 uM incubated for 1 hr by microplate reader assay; assay type: ADME, tissue-based; conditions: erythrocyte
[12] = Selectivity index, ratio of LD50 for cytotoxicity against Chinese hamster V79 cells to IC50 for antimalarial activity against CQ-sensitive Plasmodium falciparum 3D7; assay type: toxicity, cell-based; conditions: V79 cells versus Plasmodium falciparum 3D7, read-out: Ratio LD50/IC50
[13] = system: HepG2; experiment: Cytotoxicity against human HepG2 cells; assay type: cell-based
[14] = system: Plasmodium falciparum; experiment: Antiplasmodial activity against Plasmodium falciparum 3D7 infected in erythrocytes assessed as parasite growth inhibition measured after 72 hrs by LDH assay; assay type: functional, organism-based; conditions: 3D7, Erythrocyte
[15] = Selectivity index, ratio of CC50 for cytotoxicity against human THP-1 cells to IC50 for antileishmanial activity against axenic amastigote stage of Leishmania infantum infected in THP-1 cells; assay type: toxicity, cell-based; conditions: read-out: Ratio CC50/IC50
[16] = system: Leishmania infantum; experiment: Antileishmanial activity against axenic amastigote stage of Leishmania infantum infected in THP-1 cells assessed as reduction in parasite growth incubated for 72 hrs by luminescence analysis; assay type: functional, organism-based; conditions: THP-1, 72 h
[17] = system: Hemozoin; experiment: Inhibition of Beta-hematin formation at 12 to 48 uM after 24 hrs by microplate reader assay; conditions: dose 12-48 µM

Compound | LD50 [1] | IC50 [2] [µM] | selectivity ratio [3] | inhibition [4] | CC50 at 72 h [5] [µM] | IC50 [6] [µM] | inhibition [7] | further results
CC(C)[C@@H]1NC(=O)[C@H](Cc2c[nH]c3ccccc23)n2c1nc1ccccc1c2=O | Not Active | > 10 | > 21.7 | inactive | > 100 | 4.6 | – | –
O=C1N[C@H](Cc2ccc(O)cc2)c2nc3ccccc3c(=O)n2[C@H]1Cc1c[nH]c2ccccc12 | Not Active | 4.18 | – | inactive | > 100 | – | inactive | –
CC(C)[C@H]1NC(=O)[C@@H](Cc2c[nH]c3ccccc23)n2c1nc1ccccc1c2=O | Not Active | 0.15 | > 14.1 | inactive | > 100 | 7.1 | – | –
CC(C)C[C@@H]1NC(=O)[C@@H](Cc2c[nH]c3ccccc23)n2c1nc1cnccc1c2=O | Not Active | 4 | – | inactive | > 100 | – | inactive | –
CC(C)C[C@@H]1NC(=O)[C@@H](Cc2c[nH]c3ccccc23)n2c1nc1cc(-c3nnnn3C)ccc1c2=O | Not Active | 1.02 | – | inactive | > 50 | – | inactive | –
CC(C)C[C@@H]1NC(=O)[C@@H](Cc2c[nH]c3ccccc23)n2c1nc1ccc(Cl)cc1c2=O | Not Active | > 10 | – | – | – | – | – | –
O=C1N[C@@H](Cc2ccc(OCc3ccccc3)cc2)c2nc3cc(Cl)c(Cl)cc3c(=O)n2[C@@H]1Cc1c[nH]c2ccccc12 | Not Active | 4 | > 25.6 | inactive | > 100 | 3.9 | – | –
CC(C)C[C@@H]1NC(=O)[C@@H](Cc2c[nH]c3ccccc23)n2c1nc1ccc(O)cc1c2=O | Not Active | 0.73 | > 11.6 | inactive | > 100 | 8.6 | – | –
CC[C@H](C)[C@@H]1NC(=O)[C@@H](Cc2c[nH]c3ccccc23)n2c1nc1cc(Cl)c(Cl)cc1c2=O | Not Active | 1.51 | 8.6 | inactive | 50 | 5.8 | – | –
CC(C)C[C@@H]1NC(=O)[C@H](Cc2c[nH]c3ccccc23)n2c1nc1ccccc1c2=O | Not Active | > 10 | – | inactive | 50 | – | inactive | –
CC(C)C[C@@H]1NC(=O)[C@@H](Cc2c[nH]c3ccccc23)n2c1nc1cc(Cl)c(Cl)cc1c2=O | – | 0.2 | 4.2 | inactive | 25 | 5.9 | – | inhibition [8]: inactive; CC50 at 24 h [9]: 14 µM; hemolysis at 1 h, up to 10 µM [10]: < 6%; Activity [11]: Non-Toxic; selectivity ratio [12]: 70
CC[C@H](C)[C@@H]1NC(=O)[C@@H](Cc2c[nH]c3ccccc23)n2c1nc1ccccc1c2=O | Not Active | > 10 | – | – | – | – | – | –
CC(C)C[C@@H]1NC(=O)[C@@H](Cc2c[nH]c3ccccc23)n2c1nc1cc(I)c(I)cc1c2=O | Not Active | > 10 | – | – | – | – | – | –
Clc1ccc2nccc(N3CCC(CN4CCC(c5c[nH]c6ccccc56)CC4)CC3)c2c1 | – | – | – | – | – | – | – | EC50 [13]: > 10 µM; EC50 [14]: 0.034 µM
CC[C@H](C)[C@@H]1NC(=O)[C@@H](Cc2c[nH]c3ccccc23)n2c1nc1ccc(Cl)cc1c2=O | Not Active | > 10 | – | – | – | – | – | –
CSCC[C@@H]1NC(=O)[C@@H](Cc2c[nH]c3ccccc23)n2c1nc1ccccc1c2=O | Not Active | > 10 | – | – | – | – | – | –

Compound | LD50 [1] | IC50 [2] [µM] | selectivity ratio [3] | inhibition [4] | CC50 at 72 h [5] [µM] | IC50 [6] [µM] | inhibition [7] | further results
CCCCCCCCCCCCCCCCOP(=O)([O-])OCC[N+](C)(C)C [MILTEFOSINE] | – | – | – | – | 28.8 | – | inactive | selectivity ratio [15]: 28.8; IC50 [16]: 1 µM
O=C1N[C@@H](Cc2c[nH]c3ccccc23)c2nc3ccccc3c(=O)n2[C@@H]1Cc1c[nH]c2ccccc12 | Not Active | > 10 | – | – | – | – | – | –
C[C@H]1NC(=O)[C@@H](Cc2c[nH]c3ccccc23)n2c1nc1ccccc1c2=O [FUMIQUINAZOLINE G] | Not Active | 3.68 | – | – | – | – | – | –
N=C(N)c1ccc(OCCCCCOc2ccc(C(=N)N)cc2)cc1 [PENTAMIDINE] | – | – | – | inactive | > 10 | – | – | –
CC(C)[C@H]1NC(=O)[C@H](Cc2c[nH]c3ccccc23)n2c1nc1ccccc1c2=O | Not Active | > 10 | – | inactive | > 100 | – | inactive | –
CC(C)C[C@H]1NC(=O)[C@H](Cc2c[nH]c3ccccc23)n2c1nc1ccccc1c2=O | Not Active | 2 | – | inactive | > 100 | – | inactive | –
CCN(CC)CCCC(C)Nc1ccnc2cc(Cl)ccc12 (stereo not drawn) [CHLOROQUINE] | – | – | – | – | – | – | – | Activity [11]: Non-Toxic
O=C1N[C@H](Cc2ccc(OCc3ccccc3)cc2)c2nc3ccccc3c(=O)n2[C@H]1Cc1c[nH]c2ccccc12 | Not Active | > 10 | > 62.5 | inactive | > 100 | 1.6 | – | –
CC(C)C[C@@H]1NC(=O)[C@@H](Cc2c[nH]c3ccccc23)n2c1nc1ccc(I)cc1c2=O | Not Active | > 10 | 12.2 | – | 50 | 4.1 | – | selectivity ratio [15]: 6.7; IC50 [16]: 7.4 µM
CC(C)C[C@@H]1NC(=O)[C@@H](Cc2c[nH]c3ccccc23)n2c1nc1ncccc1c2=O | Not Active | 3.76 | – | inactive | > 100 | – | inactive | –
CC[C@H](C)[C@@H]1NC(=O)[C@@H](Cc2c[nH]c3ccccc23)n2c1nc1ccc(Br)cc1c2=O | Not Active | > 10 | 9.4 | – | 50 | 5.3 | – | selectivity ratio [15]: 6.4; IC50 [16]: 7.8 µM
Cc1ccc2nc3n(c(=O)c2c1)[C@H](Cc1c[nH]c2ccccc12)C(=O)N[C@H]3CC(C)C | Not Active | > 10 | – | inactive | > 100 | – | inactive | –
CC(C)C[C@@H]1NC(=O)[C@@H](Cc2c[nH]c3ccccc23)n2c1nc1ccccc1c2=O | – | 0.05 | – | inactive | > 100 | – | inactive | inhibition [17]: inactive; CC50 at 24 h [9]: 1.78 µM; hemolysis at 1 h, up to 10 µM [10]: < 6%; Activity [11]: Non-Toxic; selectivity ratio [12]: 34
COc1ccc2nc3n(c(=O)c2c1)[C@H](Cc1c[nH]c2ccccc12)C(=O)N[C@H]3CC(C)C | Not Active | > 10 | – | inactive | > 100 | – | inactive | –
CC(C)C[C@H]1NC(=O)[C@@H](Cc2c[nH]c3ccccc23)n2c1nc1ccccc1c2=O | Not Active | 0.47 | 65.7 | – | 25 | 0.38 | – | selectivity ratio [15]: 9.6; IC50 [16]: 2.6 µM
CC(C)[C@@H]1NC(=O)[C@@H](Cc2c[nH]c3ccccc23)n2c1nc1ccccc1c2=O | – | 0.1 | – | inactive | > 100 | – | inactive | inhibition [17]: inactive; CC50 at 24 h [9]: 1.91 µM; hemolysis at 1 h, up to 10 µM [10]: < 6%; Activity [11]: Non-Toxic; selectivity ratio [12]: 19
